In patent US7816319B2, “Methods and products for manipulating uncoupling protein expression” (University of Vermont and State Agricultural College, priority 1999, dated 2010):

Columns and labels:
[1] = metabolite formed from 5-FU; cited from earlier work
[2] = 5-FU that is taken up by the cell; cited from earlier work
[3] = system: L1210; assay: Fas expression after treatment with staurosporin or adriamycin; type: cell-based
Source text: (§1) 4. Treatment of L1210 DDP cells with staurosporin restores Fas expression and susceptibility to drug-induced apoptosis: L1210, but not L1210 DDP, undergo apoptotic cell death. We treated L1210 or L1210 DDP cells with the staurosporin, which inhibits protein kinase C and increases mitochondrial membrane potential, or an anti-cancer agent to which both cells are sensitive, adriamycin. Fas expression was increased or induced on both L1210 and L1210 DDP, respectively, in the presence of staurosporin or adriamycin. The L1210 DDP changed morphologically and began to divide rapidly, changes which appeared to correspond with a reversion back to the phenotype of the L1210 cells.

[4] = system: L1210 DDP; assay: as above; type: cell-based
Source text: as §1

[5] = system: Fas deficient lymphocytes; assay: Methotrexate-induced apoptosis in splenic lymphocytes, viability by flow cytometry and trypan blue; type: cell-based, mice; conditions: splenocytes of C57BL/6 lpr or gld vs wild type; 5×10^−8 M methotrexate, 18 or 32 hours
Method: 8. Fas Deficient Lymphocytes are also drug resistant to methotrexate: We isolated splenic lymphocytes from aged-matched wild type C57BL/6 mice and C57BL6.1pr and C57BL.gld. Splenocytes from C57BL/6 lpr or gld animals were isolated, red cells depleted, and single cell suspensions prepared. Cells were cultured in the absence or presence of 5×10^−8 M methotrexate for 18 or 32 hours. Cells were harvested and viability was determined by flow cytometric analysis and confirmed with trypan blue exclusion.

[6] = system: L1210; assay: Analysis of DNA fragments after methotrexate treatment; type: cell-based; conditions: 10^-8 M methotrexate, 24 hours
Method: (§2) Additionally, L1210 and L1210/DDP cells were treated with 10^-8 M methotrexate for 24 hours. […] The forward scatter low populations took up ethidium bromide differentially. The L1210 cells took up a moderate amount. […] This latter phenotype—loss in forward scatter and membrane permeability with no “DNA laddering”—is the hall mark of oncosis.

[7] = system: L1210/DDP; assay: as above; type: cell-based; conditions: 10^-8 M methotrexate, 24 hours
Method: as §2

[8] = system: L1210DDP; conditions: graded concentrations of sodium acetate
Method: (§3) Sodium Acetate as a mitochondrial modifying agent was examined. L1210 or L1210DDP cells were cultured in the presence of graded concentrations of sodium acetate in the medium. Cells were stained with Jo2.2, a fluorescein conjugated anti-Fas antibody, or an isotype control. Cell surface staining was measured flow cytometrically. The percentage of mean fluorescence intensity over the isotype control was plotted.

[9] = system: L1210; conditions: graded concentrations of sodium acetate
Method: as §3

[10] = system: B16 melanoma cells; conditions: increasing concentrations of sodium acetate
Method: Again cells were cultured in the presence of varying concentration of sodium acetate.

[11] = system: B16 melanoma cells; conditions: increasing concentrations of sodium acetate; remark: listed apart in the source
Method: B16 cells were cultured in the in the presence of different concentrations of sodium acetate and Fas expression was measured.
B16 cells also were cultured in the presence of different concentrations of sodium acetate and Fas expression was measured.

[12] = system: L1210DDP
Source text: (§4) The effects of acetate on susceptibility to Fas-dependent cell death were also examined.

[13] = system: L1210
Source text: as §4

[14] = system: MDR cells; assay: Inhibition of lysosomal UCP translocation; type: cell-based
Method: MDR cells, which are plasma membrane UCP negative and lysosomal UCP positive were treated with tunicamycin. […] These same cells were treated with tunicamycin and an-anti-UCP2 antibody.

Question: Which toxicity [1] does the source give for `NCC(F)C(=O)O` (stereo not drawn) [2-fluoro-β-alanine (FBAL), 2-fluoro-β-alanine] here?
Answer: The toxicity was “neurotoxic and cardiotoxic”.

Question: Which half-life in vivo [2] does the source give for `O=c1[nH]cc(F)c(=O)[nH]1` [5-FU, 5-Fluorouracil] here?
Answer: The half-life in vivo was “about 18 minutes”.

Question: For `COc1cccc2c1C(=O)c1c(O)c3c(c(O)c1C2=O)C[C@@](O)(C(=O)CO)C[C@@H]3O[C@H]1C[C@H](N)[C@H](O)[C@H](C)O1` [adriamycin], which Fas expression [3] is on record?
Answer: Its Fas expression is “increased”.

Question: What about the Fas expression [4] of the same compound?
Answer: Its Fas expression is “induced”.

Question: What does the source list for `CN(Cc1cnc2nc(N)nc(N)c2n1)c1ccc(C(=O)N[C@@H](CCC(=O)O)C(=O)O)cc1` [methotrexate]?
Answer: susceptibility to methotrexate-induced apoptosis [5]: decreased susceptibility; DNA laddering (nucleosome sized fragments) [6]: produced a ladder of nucleosome sized fragments indicative of apoptosis; DNA laddering (nucleosome sized fragments) [7]: did not

Question: Which “cell surface Fas expression” value [8] does the source give for `CC(=O)[O-].[Na+]` [sodium acetate] here?
Answer: Its value is “increases cell surface Fas expression”.

Question: What about the “cell surface Fas expression” value [9] of the same compound?
Answer: Its value is “increases cell surface Fas expression”.

Question: And the glucose oxidation [10]?
Answer: The glucose oxidation was “decreased”.

Question: And the glucose utilization [10]?
Answer: The glucose utilization was “decreased”.

Question: And the “levels of cell surface Fas” value ([11]; non-permeabilized B16)?
Answer: Its value is “increased”.

Question: What about the “levels of intracellular Fas” value ([11]; permeabilized B16) of the same compound?
Answer: The value was “declined”.

Question: What about the “susceptibility to Fas-dependent cell death” value [12] of the same compound?
Answer: Its value is “resulted in susceptibility to Fas-dependent cell death”.

Question: And the “susceptibility to Fas-dependent cell death” value [13]?
Answer: Its value is “resulted in susceptibility to Fas-dependent cell death”.

Question: What does the source list for `CN[C@@H]1C[C@H]2O[C@@](C)([C@@H]1OC)n1c3ccccc3c3c4c(c5c6ccccc6n2c5c31)C(=O)NC4` [staurosporin]?
Answer: Fas expression [3]: increased; Fas expression [4]: induced

Question: With tunicamycin as the compound, how does the “localization of intracellular UCP” value [14] read?
Answer: Its value is “shift in the intracellular UCP from the lysosome and mitochondria to the plasma membrane”.
